From patent publication US20240418735A1, “Methods and Kits for Determining Insulin Resistance Treatment” (Scimar Ltd., priority 2021, published 2024)

Experiments:
[1] = tested on: MIS (Meal-induced Insulin Sensitization); assay: RIST index / % MIS before and 90 minutes after a mixed liquid meal in sucrose-supplemented rats; type: in vivo; settings: for restoration of MIS on increasing the dose: increased doses of either NAC or BE, sucrose-supplemented rats
Description: While the present invention is not limited to a particular model or mechanism of action, it appears the response to feeding results in the release of acetylcholine which activates muscarinic receptors in the liver. This activation leads to increased production of nitric oxide which stimulates guanyl cyclase activity, resulting in increased levels of cyclic guanosine monophosphate which acts in stimulating the release of hepatalin from the liver. Meal-induced insulin […] (MIS) results from insulin-induced secretion of hepatalin which can only occur if the liver receives two permissive feeding signals. Absence of either signal blocks the ability of insulin to trigger hepatalin secretion. The combination of bethanechol and N-acetylcystelne (BENAC) mimics the 2 signals.
FIG. 1 is a chart showing BENAC synergistic treatment of AMIS. The % MIS (hepatalin/insulin action×100%) calculated from the RIST index in 24 hour fasted anaesthetized rats determined before and 90 minutes after intragastric injection of a mixed liquid meal in a normal control group and in four groups that had been treated with nine weeks of sucrose supplementation.

GSH = GSH levels in sucrose-supplemented rats; type: in vivo; settings: nine weeks of sucrose supplementation
hepatalin secretion = settings: one dose given before a test meal; rats on sucrose supplemented diet, 9 weeks; cited from earlier work

Structure (SMILES)	effect on the RIST index ([1]; 24 hour fasted anaesthetized rats, nine weeks of sucrose supplementation)	restoration of MIS on increasing the dose [1]	GSH levels (GSH)	ability of insulin to stimulate hepatalin secretion (hepatalin secretion)	restoration of MIS (% MIS calculated from the RIST index) ([1]; 24 hour fasted anaesthetized rats, nine weeks of sucrose supplementation, before and 90 minutes after intragastric mixed liquid meal)
CC(=O)N[C@@H](CS)C(=O)O [N-acetyl cysteine]	no effect	restored MIS to levels seen after feeding but not above	elevated GSH levels to that seen after feeding	ineffective	
CC(C[N+](C)(C)C)OC(N)=O (stereo not shown) [Bethanechol]		restored MIS to levels seen after feeding but not above		ineffective	modest restoration of MIS
